Measured values: patent publication US12509460B2 (Skyhawk Therapeutics, Inc., priority 2019, dated 2025)
Read-outs that look alike come from different tables or passages of the source.

Columns and labels:
[1] = test system: SMN protein in spinal muscular atrophy (SMA) patient fibroblasts (GM03813, Coriell); experiment: SMN protein assay, Mesoscale Discovery (MSD); type: cell-based, human; settings: read-out: SMN2 protein EC50
Outline: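 Absolute SMN levels were quantified by MSD against an SMN protein standard curve (1 μg/ml to 19.5 pg/ml) run on each plate. Samples were lysates of GM03813 patient fibroblasts (7000 cells/well) treated 48 hours with compound doses from 2.5 μM down to 0.6 nM.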

[2] = test system: MDR1 (P-gp); experiment: Blood-brain-barrier (BBB) penetration potential via MDCK-MDR1 permeability assay; settings: dog; for Papp A→B at 120 min, 5 μM: MDCK-MDR1, pH 7.4, MDCK-MDR1: Papp A-B; for Papp B→A at 120 min, 5 μM: MDCK-MDR1, pH 7.4, MDCK-MDR1: Papp B-A
Procedure: (§1) Example A13: Assessment of Blood-Brain-Barrier (BBB) Penetration Potential Via an MDCK-MDR1 Permeability Assay
(§2) The permeability of compounds is assessed for BBB penetration potential by use of an MDCK-MDR1 assay (Catalog EA203) performed by Absorption Systems, Exton PA.
(§3) Experimental Procedure: MDR1-MDCK cell monolayers are grown to confluence on collagen-coated, microporous membranes in 12-well assay plates. The permeability assay buffer is Hanks' balanced salt solution containing 10 mM HEPES and 15 mM glucose at a pH of 7.4. The buffer in the receiver chamber also contained 1% bovine serum albumin. The dosing solution concentration is 5 μM of test article in the assay buffer. Cell monolayers are dosed on the apical side (A-to-B) or basolateral side (B-to-A) and incubated at 37° C. with 5% CO2 in a humidified incubator. Samples are taken from the donor and receiver chambers at 120 minutes. Each determination is performed in duplicate. The flux of lucifer yellow is also measured post-experimentally for each monolayer to ensure no damage is inflicted to the cell monolayers during the flux period. All samples are assayed by LC-MS/MS using electrospray ionization.
(§4) The apparent permeability (Papp) and percent recovery are calculated as follows:
(§5) Analytical Method: Liquid Chromatography. Column: Waters ACQUITY UPLC BEH Phenyl 30 ×2.1 mm, 1.7 μm; M.P. Buffer. 25 mM ammonium formate buffer, pH 3.5; Aqueous Reservoir (A): 90% water, 10% buffer, Organic Reservoir (B): 90% acetonitrile, 10% buffer, Flow Rate: 0.7 mL/minute; Gradient Program:
(§6) • Total Run Time: 1.00 minute • Autosampler. 2 μL injection volume • Wash1: water/methanol/2-propanol:1/1/1; with 0.2% formic acid • Wash2: 0.1% formic acid in water • Brain Penetration • Potential Classification: A-B Papp≥3.0 and Efflux Ratio <3.0: High • A-B Papp≥3.0 and 10≥Efflux Ratio >3.0: Moderate • A-B Papp≥3.0 and Efflux Ratio≥10: Low • A-B Papp<3.0: Low

[3] = test system: MDR1-MDCK cell monolayers; experiment: as above
Procedure: as §1, §2, §3, §4, §5, §6

[4] = test system: MDR1; experiment: as above; settings: dog, MDCK-MDR1, pH 7.4, MDCK-MDR1: Efflux
Procedure: as §1, §2, §3, §4, §5, §6

[5] = test system: mHTT protein in GM04724 (CAG 70/20) Huntington's disease patient lymphoblast cells; experiment: mHTT protein assay, 2B7-MW1 assay via Mesoscale Discovery (MSD); type: cell-based, human
Outline: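 Signal from the 2B7-MW1 antibody pair on MSD, rising with polyQ length and smaller HTT fragments, measured mHTT after 48 h compound exposure (0.6 nM–10 μM) in GM04724 cells. A parallel replicate plate gave CellTiter Glo viability.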

[6] = Quantitative splicing assay (HTT), qPCR; type: cell-based, human; settings: Homo sapiens, GM04724, 24 h, GM04724 lymphoblasts, read-out: HTT Splicing: E49-50 EC50
Outline: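 TaqMan qPCR on cell-lysate cDNA quantifies cryptic-exon inclusion from HTT intron 49. Lymphoblasts plated at 50,000 cells/well had received compound for 24 h, 0.15 nM-2.5 uM range, 0.1% DMSO.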

[7] = test system: SMN FL and SMN Δ7 in spinal muscular atrophy (SMA) patient fibroblasts (GM03813, Coriell); experiment: Quantitative splicing assay (SMN), qPCR; type: cell-based, human; settings: read-out: SMN2 Splicing FL EC50
Procedure: Spinal muscular atrophy (SMA) patient fibroblasts (GM03813, Coriell) are plated in 96-well plates at 50,000 cells/well. […] Treated cells are lysed and cDNA synthesized using the Fast Advanced Cells-to-Ct kit (Thermofisher A35378) according to the manufacturer's instructions. 2 μL of each cDNA are used in qPCR reactions. […] Reactions are run in a Quant Studio 6 qPCR instrument with default settings.

[8] = SMA patient fibroblasts GM03813, 48 hours, MSD
[9] = GM04724 Huntington's disease patient lymphoblasts
[10] = Homo sapiens, Fibroblast, 24 h, SMA patient fibroblasts GM03813, 24 h, qPCR
[11] = SMA patient fibroblasts (GM03813), 48 hours
[12] = GM04724 (CAG 70/20) Huntington's disease patient lymphoblasts
[13] = Homo sapiens, Fibroblast, 24 h, SMA patient fibroblasts (GM03813), 24 h

SMILES	EC50 [1, 8]	Papp A→B at 120 min, 5 μM ([2]; A-B direction)	Papp B→A at 120 min, 5 μM ([2]; B-A direction)	MDCK-MDR1: % Recov A-B ([3]; A-B direction)	MDCK-MDR1: % Recov B-A ([3]; B-A direction)	efflux ratio at 120 min, 5 μM ([4]; efflux ratio)	EC50 [5, 9]	EC50 ([6]; qPCR)	EC50 [7, 10]	EC50 [1, 11]	Papp A→B at 120 min, 5 μM ([2]; A-B)	Papp B→A at 120 min, 5 μM ([2]; B-A)	MDCK-MDR1: % Recov A-B ([3]; A-B)	MDCK-MDR1: % Recov B-A ([3]; B-A)	efflux ratio at 120 min, 5 μM [4]	EC50 [5, 12]	EC50 [6]	EC50 [7, 13]	EC50 ([7]; SMA patient fibroblasts GM03813, 24 h, qPCR)
CN(c1ccc(-c2cc3ccn(C)c(=O)c3cc2O)nn1)[C@@H]1C[C@H]2CC[C@H](N2)[C@@H]1F [Compound 84A, 6-(6-(((1S,2S,3R,5R)-2-fluoro-8-azabicyclo[3.2.1]octan-3-yl)(methyl)amino)pyridazin-3-yl)-7-hydroxy-2-methylisoquinolin-1(2H)-one]	0.01 to 15 nM	0.9 ×10⁻⁶ cm/s	52 ×10⁻⁶ cm/s	92%	90%	58	0.01 to 15 nM	16 to 50 nM	16 to 50 nM										
CN(c1ccc(-c2ccc(-c3ccn(C)n3)cc2O)nn1)[C@H]1C[C@@H]2CC[C@@H](N2)[C@H]1F (single isomer, unassigned) [Compound 36B]	0.01 to 15 nM	5.87 ×10⁻⁶ cm/s	41.8 ×10⁻⁶ cm/s	72%	79%	7	0.01 to 15 nM	0.01 to 15 nM	0.01 to 15 nM										
CN(c1ccc(-c2cc3oc(=O)n(C)c3cc2O)nn1)[C@@H]1C[C@H]2CC[C@H](N2)[C@@H]1F (single isomer, unassigned) [Compound 79A]	0.01 to 15 nM	2.51 ×10⁻⁶ cm/s	34.9 ×10⁻⁶ cm/s	89%	99%	14	0.01 to 15 nM	16 to 50 nM	16 to 50 nM										
CN(c1ccc(-c2cc3nccnc3cc2O)nn1)[C@H]1C[C@@H]2CC[C@@H](N2)[C@H]1F [Compound 88B, 7-(6-(((1R,2R,3S,5S)-2-fluoro-8-azabicyclo[3.2.1]octan-3-yl)(methyl)amino)pyridazin-3-yl)quinoxalin-6-ol]	0.01 to 15 nM	6.88 ×10⁻⁶ cm/s	50.5 ×10⁻⁶ cm/s	84%	93%	7	16 to 50 nM	16 to 50 nM	16 to 50 nM										
CN(c1ccc(-c2ccc(-n3nccn3)cc2O)nn1)[C@@H]1C[C@H]2CCC[C@H](N2)[C@@H]1F [Compound 5A, 2-(6-(((1S,2S,3R,5R)-2-fluoro-9-azabicyclo[3.3.1]nonan-3-yl)(methyl)amino)pyridazin-3-yl)-5-(2H-1,2,3-triazol-2-yl)phenol]	0.01 to 15 nM	4.85 ×10⁻⁶ cm/s	20.1 ×10⁻⁶ cm/s	29%	58%	4	0.01 to 15 nM	0.01 to 15 nM	16 to 50 nM										
Cc1nc2cc(-c3ccc(N(C)[C@@H]4C[C@H]5CC[C@H](N5)[C@@H]4F)nn3)c(O)cc2s1 [Compound 115A, 5-(6-(((1S,2S,3R,5R)-2-fluoro-8-azabicyclo[3.2.1]octan-3-yl)(methyl)amino)pyridazin-3-yl)-2-methylbenzo[d]thiazol-6-ol]										0.01 to 15 nM	4.7 ×10⁻⁶ cm/s	39.3 ×10⁻⁶ cm/s	93%	78%	8	0.01 to 15 nM	16 to 50 nM	16 to 50 nM	
CN(c1ccc(-c2cc3cnccc3cc2O)nn1)[C@@H]1C[C@H]2CC[C@H](N2)[C@@H]1F (single isomer, unassigned) [Compound 7A]	0.01 to 15 nM	3.31 ×10⁻⁶ cm/s	20.1 ×10⁻⁶ cm/s	65%	75%	6	0.01 to 15 nM	16 to 50 nM											16 to 50 nM
CN(c1ccc(-c2cc(F)c(-n3ccnn3)cc2O)nn1)[C@@H]1C[C@H]2CC[C@H](N2)[C@@H]1F [Compound 52A, 4-fluoro-2-(6-(((1S,2S,3R,5R)-2-fluoro-8-azabicyclo[3.2.1]octan-3-yl)(methyl)amino)pyridazin-3-yl)-5-(1H-1,2,3-triazol-1-yl)phenol]	16 to 50 nM	6.63 ×10⁻⁶ cm/s	49.7 ×10⁻⁶ cm/s	86%	92%	8	16 to 50 nM	101 to 500 nM	51 to 100 nM										
CN(c1ccc(-c2cc3c(=O)n(C)ccc3cc2O)nn1)[C@@H]1C[C@H]2CC[C@H](N2)[C@@H]1F [Compound 83A, 7-(6-(((1S,2S,3R,5R)-2-fluoro-8-azabicyclo[3.2.1]octan-3-yl)(methyl)amino)pyridazin-3-yl)-6-hydroxy-2-methylisoquinolin-1(2H)-one]	0.01 to 15 nM	0.98 ×10⁻⁶ cm/s	43.5 ×10⁻⁶ cm/s	89%	83%	44	0.01 to 15 nM	0.01 to 15 nM	0.01 to 15 nM										
CN(c1ccc(-c2cc3oc(C(=O)N4CCC4)cc3cc2O)nn1)[C@H]1C[C@@H]2CC[C@@H](N2)[C@H]1F [Compound 112B, azetidin-1-yl(6-(6-(((1R,2R,3S,5S)-2-fluoro-8-azabicyclo[3.2.1]octan-3-yl)(methyl)amino)pyridazin-3-yl)-5-hydroxybenzofuran-2-yl)methanone]										0.01 to 15 nM	0.5 ×10⁻⁶ cm/s	47.3 ×10⁻⁶ cm/s	98%	81%	95	0.01 to 15 nM	16 to 50 nM	0.01 to 15 nM	
CN(c1ccc(-c2ccc(-c3cn[nH]c3)cc2O)nn1)[C@H]1C[C@@H]2CC[C@@H](N2)[C@H]1F (single isomer, unassigned) [Compound 42B]	0.01 to 15 nM	0.71 ×10⁻⁶ cm/s	27.7 ×10⁻⁶ cm/s	78%	73%	39	0.01 to 15 nM	0.01 to 15 nM	0.01 to 15 nM										
Cc1nc2cc(O)c(-c3ccc(N(C)[C@H]4C[C@@H]5CC[C@@H](N5)[C@H]4F)nn3)cc2o1 [Compound 117B, 6-(6-(((1R,2R,3S,5S)-2-fluoro-8-azabicyclo[3.2.1]octan-3-yl)(methyl)amino)pyridazin-3-yl)-2-methylbenzo[d]oxazol-5-ol]										0.01 to 15 nM	4.32 ×10⁻⁶ cm/s	45 ×10⁻⁶ cm/s	90%	86%	10	0.01 to 15 nM	16 to 50 nM	16 to 50 nM	
CN(c1ccc(-c2ccc(-c3cnn(C)c3)cc2O)nn1)[C@H]1C[C@@H]2CCC[C@@H](N2)[C@@H]1F [Compound 14B, 2-(6-(((1R,2S,3S,5S)-2-fluoro-9-azabicyclo[3.3.1]nonan-3-yl)(methyl)amino)pyridazin-3-yl)-5-(1-methyl-1H-pyrazol-4-yl)phenol]	0.01 to 15 nM	2.95 ×10⁻⁶ cm/s	32.1 ×10⁻⁶ cm/s	54%	91%	11	0.01 to 15 nM	0.01 to 15 nM	51 to 100 nM										
CN(c1ccc(-c2ccc(-n3ccnc3)cc2O)nn1)[C@@H]1C[C@H]2CC[C@H](N2)[C@@H]1F [Compound 4A, 2-(6-(((1S,2S,3R,5R)-2-fluoro-8-azabicyclo[3.2.1]octan-3-yl)(methyl)amino)pyridazin-3-yl)-5-(1H-imidazol-1-yl)phenol]	0.01 to 15 nM	2.75 ×10⁻⁶ cm/s	44.8 ×10⁻⁶ cm/s	86%	73%	16	16 to 50 nM	16 to 50 nM	51 to 100 nM										
